In article PMC5550016, “Aminophosphinates against Helicobacter pylori ureolysis—Biochemical and whole-cell inhibition characteristics” (PLoS ONE, 2017):
Values joined by “and” are separate entries in the source; they are usually repeats but may differ in a detail not shown here. Equal values may be shown once. Read-outs that look alike come from different tables or passages of the source.

Legend:
[1] = parameters: method as in PMID 9508511; conditions: pH 2; cited from earlier work
[2] = target: T1, purified recombinant urease from H. pylori (Helicobacter pylori, UniProt B5Z674); test: Inhibition of purified recombinant H. pylori urease (phenol-hypochlorite, Lineweaver-Burk); type: biochemical; conditions: Ki, 50 mM phosphate buffer pH 7.5, 37°C, 0.1–2.5 mM urea; competitive reversible inhibition
T1 construct: plasmid pGEM::ureOP, which encodes the entire urease gene cluster, was used to produce recombinant H. pylori urease; made in house; host or cells: E. coli Rosetta2 (DE3) + pGEM::ureOP
Method: The kinetic parameters of urease were determined by measuring the initial rates of the reactions in 50 mM phosphate buffer (pH 7.5) at 37°C. Ammonia was routinely quantified by the phenol hypochlorite method as reported previously.
Inhibition studies were conducted by initiating the enzymatic reaction with the addition of the enzyme into assay mixtures (200 μL total volume) containing increasing concentrations of inhibitors and 0.1–2.5 mM urea. After 15 min of incubation at 37°C, the reaction was stopped by adding phenol-hypochlorite reagents and the absorbance of the formed indophenol blue complexes was measured at 650 nm. The Ki values were determined from Lineweaver-Burk plots after testing at least five inhibitor concentrations in a range that depended on their inhibitory strength. The concentration of inhibitor that caused the loss of 50% of the enzyme’s activity (IC50) was determined from the measurements that were performed at a urea concentration of 0.6 mM and calculated using the linear regression of the urease activity versus the logarithm of the inhibitor concentrations.
The values of Ki and IC50 for all analyzed compounds were calculated using the appropriate equations in GraphPad Prism 5. Errors were reported with two significant digits, and each measured parameter was given with the same number of decimal places as its error [32].

[3] = target: T2, urease in intact E. coli (pGEM::ureOP) cells (Helicobacter pylori, UniProt B5Z674); test: Urease inhibition in whole cells of E. coli + pGEM::ureOP; type: cell-based; conditions: IC50 exceeding 2 mM considered not active
T2 construct: plasmid pGEM::ureOP, which encodes the entire urease gene cluster, was used to produce recombinant H. pylori urease; expressed in transfected cells; host or cells: E. coli Rosetta2 (DE3) transformed with pGEM::ureOP
Method: The expression strain E. coli + pGEM::ureOP was cultured in 150 mL of LB broth (Biocorp, Poland) with 100 μg/mL ampicillin (Polfa, Tarchomin, Poland) at 37°C and induced with IPTG (0.75 mM) and Ni^2+ (0.75 mM) during the exponential growth phase, which was determined by the OD600 measurements (OD600 = 0.6). Further expression was conducted for 24 h at 22°C. The bacterial culture (1 mL) was harvested via centrifugation (2 min, 20 376 x g, 37°C) and washed three times with PBS. The pellets from 1-mL samples of the expression cell culture were resuspended in 100 μL of PBS. The hydrolysis of urea that is catalyzed by whole bacterial cells was performed in 96-well plates (Rotilabo, U-profile). The reaction progress curves were obtained by the addition of bacterial cells (1×10^9 CFU/mL final concentration) into mixtures (300 μL final volume) that contained 5 mM urea and various inhibitor concentrations that depended on their inhibitory strength. Alternatively, the reaction was initiated via the addition of a concentrated solution of urea after a 120-min preincubation of bacterial cells with the inhibitor. Samples (50 μL) of the reaction mixture were removed after the appropriate reaction time. The enzymatic reactions in the samples were terminated via the introduction of 100 μL of phenol-sodium nitroprusside solution, immediately followed by the addition of 100 μL of NaOH-hypochlorite solution. The absorption of indophenol blue was measured at 650 nm using a TECAN-Sunrise absorbance reader equipped with a gradient filter and Magellan software. The IC50 values were determined from the linear regression of the urease activity versus the logarithm of the inhibitor concentration. The reaction was studied in the absence and in the presence of the inhibitor. The influence of dimethylformamide (DMF), which was used as a solvent for several compounds, was also determined.

[4] = target: T3, urease in intact H. pylori J99 (Helicobacter pylori, UniProt P69997); test: Urease inhibition in whole cells of H. pylori J99; type: cell-based
T3 construct: In the intact H. pylori J99 cells, the urease susceptibility profile was similar to that of E. coli (pGEM::ureOP); endogenous in cells

[5] = system: mouse fibroblasts BALB/3T3; test: Sulforhodamine B antiproliferative assay, BALB/3T3; type: cell-based; conditions: compound 0.5 mM, 72 h, read-out: % Proliferation inhibition ± SD
Method: (§1) The BALB/3T3 cell line was cultured in Dulbecco MEM (Gibco, Scotland) supplemented with 10% (v/v) FBS (Sigma-Aldrich, Poznań, Poland) and 2 mM L-glutamine (Sigma-Aldrich, Poznań, Poland). The MCF-10A cell line was cultured in F-12 Nutrient mixture supplemented with 5% (v/v) horse serum (both Gibco, Scotland), 0.05 μg/mL cholera toxin, 10 μg/mL insulin, 0.5 μg/mL hydrocortisone, and 20 ng/mL EGFH (all Sigma-Aldrich, Poznań, Poland). The Eph4-Ev cell line was cultured in Dulbecco MEM supplemented with 2 mM L-glutamine, 10% (v/v) calf bovine serum (ATCC Rockville, Maryland, USA) and puromycin (Sigma-Aldrich, Poznań, Poland). The HEC A10 cell line was cultured in OPTI-MEM (IIET, Wroclaw, Poland) supplemented with 2 mM L-glutamine and 5% (v/v) FBS. All culture media were additionally supplemented with antibiotics: 100 U/mL penicillin and 100 μg/mL streptomycin (both Polfa-Tarchomin, Poland). During all experiments, cells were maintained in a humid atmosphere at 37°C and 5% CO2 and passaged twice a week using EDTA-Trypsin (pH 8; IIET, Wroclaw, Poland) solution as a detachment agent.
(§2) This assay was used as previously described with minor modifications. Briefly, 24 h before adding the tested compounds, cells were seeded in 96-well plates (Sarstedt, Germany) in appropriate culture medium with 10^5 […] (100 μL/well). Cells were treated with each compound in at least four concentrations in the range from 500–4 μM for 72 h. Next, cells were fixed with 50 μL/well of 50% (w/v) trichloroacetic acid (Avantor Performance Materials, Gliwice, Poland). After a 1-hour incubation, the plates were washed several times with tap water, and 50 μL of 0.4% (w/v) solution of sulforhodamine B (Sigma-Aldrich, Germany) in 1% (v/v) acetic acid (Avantor Performance Materials, Gliwice, Poland) was added to each well. After a 30-min incubation at room temperature, unbound dye was washed out with 1% (v/v) acetic acid, whereas bound dye was solubilized with 10 mM unbuffered TRIS (Avantor Performance Materials, Gliwice, Poland) solution. The entire procedure was performed using an EL-406 washing station (BioTek Instruments, USA). Next, absorbance at 540 nm was measured using a Synergy H4 Hybrid Reader (BioTek Instruments, USA). Compounds at each concentration were tested in triplicate in a single experiment, and each experiment was repeated three times independently. The results were calculated using the Prolab-3 system based on Cheburator 0.4 software and was presented as proliferation inhibition percentages at the highest concentration used.

[6] = system: murine mammary gland epithelium Eph4-Ev; test: Sulforhodamine B antiproliferative assay, Eph4-Ev; type: cell-based; conditions: Mus musculus, compound 0.5 mM, 72 h, read-out: % Proliferation inhibition ± SD
Method: as §1, §2

[7] = system: immortalized murine endothelial cell line from peripheral lymph node HEC A10; test: Sulforhodamine B antiproliferative assay, HEC A10; type: cell-based; conditions: Mus musculus, compound 0.5 mM, 72 h, read-out: % Proliferation inhibition ± SD
Method: as §1, §2

[8] = system: human mammary gland MCF-10A; test: Sulforhodamine B antiproliferative assay, MCF-10A; type: cell-based; conditions: compound 0.5 mM, 72 h, read-out: % Proliferation inhibition ± SD
Method: as §1, §2

[9] = target: purified urease from Proteus mirabilis (PMU); parameters: method as in PMID 18717581, PMID 20684601, PMID 21559954, PMID 25699141; conditions: read-out: Ki against PMU; cited from earlier work
[10] = target: purified urease from Sporosarcina pasteurii (SPU); parameters: method as in PMID 18717581, PMID 20684601, PMID 21559954, PMID 25699141; conditions: read-out: Ki against SPU; cited from earlier work
[11] = IC500, without preincubation of cells with inhibitory compounds, 30-min reactions, 5 mM urea
[12] = IC502h PBS, 2 h of preincubation with inhibitors in PBS
[13] = cells grown with urea, 2 h of preincubation with inhibitors in PBS under microaerobic conditions, read-out: IC502h PBS
[14] = cells grown with urea, 2 h of preincubation with inhibitors in growth medium under microaerobic conditions, read-out: IC502h medium
[15] = cells grown with urea, without preincubation, read-out: IC500
[16] = cells grown without urea, 2 h of preincubation with inhibitors in PBS under microaerobic conditions, read-out: IC502h PBS
[17] = cells grown without urea, without preincubation, read-out: IC500

T3 sequence (Q9ZMZ4 whole entry): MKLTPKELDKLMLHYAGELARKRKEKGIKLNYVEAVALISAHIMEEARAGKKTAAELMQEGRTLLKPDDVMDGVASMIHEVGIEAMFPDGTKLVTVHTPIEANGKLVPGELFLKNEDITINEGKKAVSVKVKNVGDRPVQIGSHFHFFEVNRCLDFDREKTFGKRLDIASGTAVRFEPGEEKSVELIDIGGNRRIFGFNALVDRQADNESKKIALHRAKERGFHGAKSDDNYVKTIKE
T3 sequence (P69997 whole entry): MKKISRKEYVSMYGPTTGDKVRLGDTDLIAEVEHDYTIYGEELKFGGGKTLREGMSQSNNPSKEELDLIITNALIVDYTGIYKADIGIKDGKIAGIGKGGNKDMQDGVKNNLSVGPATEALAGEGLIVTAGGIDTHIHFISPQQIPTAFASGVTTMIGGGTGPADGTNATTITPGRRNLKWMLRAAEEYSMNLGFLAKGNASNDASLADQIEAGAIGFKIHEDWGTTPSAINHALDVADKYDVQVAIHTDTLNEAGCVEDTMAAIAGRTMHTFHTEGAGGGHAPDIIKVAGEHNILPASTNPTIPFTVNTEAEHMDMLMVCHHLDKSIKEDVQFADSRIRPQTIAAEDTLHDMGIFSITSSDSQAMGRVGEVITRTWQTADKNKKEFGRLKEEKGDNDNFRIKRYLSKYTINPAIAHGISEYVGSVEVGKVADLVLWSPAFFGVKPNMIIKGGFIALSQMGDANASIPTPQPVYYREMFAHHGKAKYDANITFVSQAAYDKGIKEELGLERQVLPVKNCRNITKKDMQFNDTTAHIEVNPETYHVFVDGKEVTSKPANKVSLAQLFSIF
T1 sequence (B5Z674 whole entry, looked up): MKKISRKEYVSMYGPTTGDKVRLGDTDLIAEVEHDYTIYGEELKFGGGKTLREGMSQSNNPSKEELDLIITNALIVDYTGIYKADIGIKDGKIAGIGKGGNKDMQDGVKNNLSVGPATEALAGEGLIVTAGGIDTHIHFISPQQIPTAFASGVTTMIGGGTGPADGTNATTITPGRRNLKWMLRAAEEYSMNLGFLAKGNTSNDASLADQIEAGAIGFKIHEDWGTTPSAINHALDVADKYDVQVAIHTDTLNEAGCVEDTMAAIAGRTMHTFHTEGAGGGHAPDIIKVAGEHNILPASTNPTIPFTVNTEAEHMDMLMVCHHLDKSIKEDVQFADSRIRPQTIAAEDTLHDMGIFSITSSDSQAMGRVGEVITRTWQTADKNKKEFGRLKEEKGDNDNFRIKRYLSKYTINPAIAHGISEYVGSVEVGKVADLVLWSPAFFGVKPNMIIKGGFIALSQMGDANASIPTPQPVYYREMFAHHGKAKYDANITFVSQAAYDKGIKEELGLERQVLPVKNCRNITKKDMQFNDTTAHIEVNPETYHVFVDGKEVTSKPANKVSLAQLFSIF
T2 sequence (B5Z674 whole entry, looked up): as above

SMILES	half-life [1]	Ki [2]	IC50 [3, 11]	IC50 [3, 12]	IC50 [4, 13]	IC50 [4, 14]	IC50 [4, 15]	IC50 [4, 16]	IC50 [4, 17]	inhibition at 500 µM [5]	inhibition at 500 µM [6]	inhibition at 500 µM [7]	inhibition at 500 µM [8]	Ki [9]	Ki [10]	IC50 ([4]; cells grown without urea, preincubated cells, read-out: IC50)	IC50 ([3]; read-out: IC500, without preincubation of cells with inhibitory compounds, 30-min reactions, 5 mM urea)	IC50 ([3]; read-out: IC502h PBS, 2 h of preincubation with inhibitors in PBS)	IC500 ([3]; without preincubation of cells with inhibitory compounds, 30-min reactions, 5 mM urea)
NP(N)(=O)NC(=O)c1ccc(F)cc1 [fluorofamide, N-(diaminophosphinyl)-4-fluorobenzamide]	5 min																		
CCCCCCNCP(=O)(O)CN [Compound 13, N-n-hexylaminomethyl-P-aminomethylphosphinic acid]		0.29 µM and 0.294 µM	186 ± 30 µM	16.9 ± 2.2 µM	608 ± 23 µM	205 ± 15 µM	510 ± 16 µM	742 ± 55 µM	597 ± 19 µM	6.5 ± 3.6%	0%	0%	0.5 ± 0.4%	0.2 µM					
CNCP(=O)(O)CO [Compound 4, N-methylaminomethyl-P-hydroxymethylphosphinic acid]		1.03 µM	759 ± 106 µM	430 ± 63 µM	373 ± 48 µM	207 ± 11 µM	465 ± 42 µM	676 ± 23 µM	341 ± 41 µM	0%	0%	0%	0%		0.43 µM				
CN(C)CP(C)(=O)O [Compound 3, N,N-dimethylaminomethyl-P-methylphosphinic acid]		9.27 ± 0.35 µM	179 ± 32 µM	25.1 ± 4.9 µM	395 ± 37 µM	304 ± 16 µM	640 ± 18 µM	765 ± 31 µM	530 ± 24 µM						0.62 µM				
CNCP(=O)(O)O [Compound 1, N-methylaminomethylphosphonic acid]		38.3 ± 1.1 µM	164 ± 24 µM	110 ± 21 µM	349 ± 29 µM	202 ± 43 µM	400 ± 8.7 µM	598 ± 81 µM	316 ± 18 µM	2.7 ± 1.8%	1.3 ± 2.3%	0%	0%						
CNCP(=O)(O)CNC [Compound 21, bis(N-methylaminomethyl)phosphinic acid]		26.1 ± 1.8 µM	1260 ± 189 µM	269 ± 39 µM	549 ± 15 µM	117 ± 7.4 µM	443 ± 24 µM	132 ± 21 µM	581 ± 37 µM	0%	2.2 ± 1.5%	0%	0%						
CNCP(=O)(O)CN [Compound 7]		20.9 ± 2 µM	880 ± 105 µM	440 ± 61 µM	456 ± 45 µM	574 ± 44 µM	> 2000 µM	418 ± 48 µM	327 ± 68 µM	0%	3.9 ± 2.1%	0%	0%			< 500 µM			
CNCP(C)(=O)O [Compound 2]		61.6 ± 3.5 µM	573 ± 76 µM	306 ± 48 µM	468 ± 21 µM	274 ± 87 µM	597.4 ± 5.2 µM	852 ± 40 µM	480 ± 79 µM	1.4 ± 1.1%	1.1 ± 1%	0%	0%						
NCP(=O)(O)CN [Compound 6, Bis(aminomethyl)phosphinic acid]		61 ± 9.2 µM			> 2000 µM	> 2000 µM	> 2000 µM	611 ± 63 µM	1300 ± 239 µM	3.2 ± 1.6%	0%	7.7 ± 2.4%	0%				> 2000 µM	> 2000 µM	complete lack of inhibitory effects
